This is an account of results in ChEMBL document CHEMBL1156667, “Dynamic nature of the ligustilide complex” (J Nat Prod, 2008).

The structures appear in SMILES notation.

Holding throughout (assay type): physicochemical
Data set [1] in a line: Chemical stability in heaxane; EtOAc:MeOH:H2O-7 (9:1:9:1) after 41 days by qHNMR experiment. To be noted: hexane:EtOAc:MeOH:H2O (9:1:9:1) solvent mixture; read-out: Stability.
Data set [2] in a line: Chemical stability in DMSO after 41 days. To be noted: read-out: Stability.
A short description of data set [3]: Chemical stability in MeOH after 41 days. To be noted: read-out: Stability.
Data set [4] can be described thus: Chemical stability in CDCl3 after 46 days by GC-MS analysis. To be noted: read-out: Stability.
A short description of data set [5]: Chemical stability in CDCl3 after 46 days by qHNMR experiment. As to conditions: read-out: Stability.

With `CCC/C=C1\OC(=O)C2=C1CCC=C2` [LIGUSTILIDE], the remaining at 984 h is 0.8% in data set [1], 5.2% in data set [2] and 4.4% in data set [3]. Also, the remaining at 1104 h was determined as 91.6% in data set [4] and 78.1% in data set [5].
